Experiments:
acid phosphatase (ACP) [1] = conditions: citrate acid buffer, 37°C; no inhibitor; tissue homogenate supernatant
[2] = tested on: alkaline phosphatase (ALP); conditions: glycine-NaOH buffer, MgCl2, 37°C; no inhibitor; tissue homogenate supernatant
[3] = tested on: T1, acetylcholinesterase (AChE); assay: Ellman assay, […] nm, Lineweaver-Burk; assay type: biochemical, Lymnaea acuminata; conditions: pH 8.0, 25°C; no inhibitor; tissue homogenate supernatant
T1 construct: native, crude nervous tissue homogenate supernatant (1000 g), not purified

[4] = molecular target: T1, acetylcholinesterase (AChE); assay: Ellman assay, […] nm; assay type: biochemical, Lymnaea acuminata; conditions: acetylthiocholine iodide, pH 8.0, 25°C, 15 min preincubation; tissue homogenate supernatant; competitive noncompetitive
[5] = molecular target: T2, alkaline phosphatase (ALP); assay: 4-nitrophenol release, […] nm; assay type: biochemical, Lymnaea acuminata; conditions: 4-nitrophenyl phosphate, glycine-NaOH buffer, MgCl2, 37°C, 15 min preincubation at 25°C, tissue homogenate supernatant
T2 construct: native, crude nervous tissue homogenate supernatant (5000 g), not purified; isoenzyme not identified

acid phosphatase (ACP) [6] = molecular target: T3, acid phosphatase (ACP); assay: 4-nitrophenol release, […] nm; assay type: biochemical, Lymnaea acuminata; conditions: 4-nitrophenyl phosphate, citrate acid buffer, 37°C, 15 min preincubation at 25°C, tissue homogenate supernatant
T3 construct: native, crude nervous tissue homogenate supernatant (5000 g), not purified; isoenzyme not identified

## O=[N+]([O-])c1ccc(OP(=O)(O)O)cc1 [4-nitrophenyl phosphate]
Acid phosphatase (ACP) [1]
  Km: 13.7 µM
[2]
  Km: 20 µM

## CC(=O)SCC[N+](C)(C)C [acetylthiocholine iodide]
[3]
  Km: 317 µM

## C=CCc1cc(OC)c2c(c1)OCO2 [myristicin, 4-methoxy-6-(2-propenyl)-1,3-benzodioxole]
[4]
  IC50: 30 µM
[5]; uncompetitive
  IC50: 60 µM
Acid phosphatase (ACP) [6]; competitive
  IC50: 70 µM

## CCCCCCCCCCCCCC(=O)OCC(COC(=O)CCCCCCCCCCCCC)OC(=O)CCCCCCCCCCCCC [trimyristin, 1,2,3-tritetradecanoylglycerol]
[4]
  IC50: 110 µM
[5]; competitive noncompetitive
  IC50: 180 µM
Acid phosphatase (ACP) [6]; uncompetitive
  IC50: 160 µM

Reference: PMC2963183, “Enzyme Inhibition by Molluscicidal Components of Myristica fragrans Houtt. in the Nervous Tissue of Snail Lymnaea acuminata” (Enzyme Research, 2009)
